Laboratory results as given in patent US8076487B2, “Pyridone derivative and herbicide” (Kumiai Chemical Industry Co., Ltd., priority 2006, dated 2011).

Columns and labels:
Type in all cases: in vivo
[1] = system: Japanese bulrush (Scirpus juncoides Roxb.); assay: Test Example 1: herbicidal effect by soil application to paddy field; conditions: paddy field soil application; active ingredient 1,000 g per 1 hectare; wettable powder added dropwise to water surface the day after sowing; examined on the 21st day after application
Procedure, shortened: (§1)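 Under greenhouse conditions, seeds sown on puddled paddy soil in 100 cm2 pots under 3 cm of standing water received the test compound; injury was assessed with a standard scoring scheme three weeks (day 21) after treatment.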

[2] = system: early watergrass (Echinochloa oryzicola Vasing); assay: as above; conditions: paddy field soil application; active ingredient 1,000 g per 1 hectare; wettable powder added dropwise to water surface the day after sowing; examined on the 21st day after application
Procedure, shortened: as §1

[3] = system: heartshape false pickerelweed (Monochoria vaginalis (Burm.f.) C.Presl); assay: as above; conditions: paddy field soil application; active ingredient 1,000 g per 1 hectare; wettable powder added dropwise to water surface the day after sowing; examined on the 21st day after application
Procedure, shortened: as §1

[4] = system: barnyardgrass (Echinochloa crus-galli (L.) P. Beauv. var. crus-galli); assay: Test Example 2: herbicidal effect by soil application to upland field; conditions: soil surface spray, upland field soil, 1,000 g active ingredient per hectare, 21st day after application
Procedure, shortened: (§2)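 Soil surface treatment after sowing: wettable powder in water, 1,000 g a.i./ha, spray volume 1,000 L/ha. Greenhouse. Scored on a standard herbicidal scale at day 21.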

[5] = system: green foxtail (Setaria viridis (L.) P. Beauv.); assay: as above; conditions: soil surface spray, upland field soil, 1,000 g active ingredient per hectare, 21st day after application
Procedure, shortened: as §2

[6] = system: slender amaranth (Amaranthus viridis L.); assay: as above; conditions: soil surface spray, upland field soil, 1,000 g active ingredient per hectare, 21st day after application
Procedure, shortened: as §2

[7] = system: velvetleaf (Abutilon theophrasti medicus); assay: as above; conditions: soil surface spray, upland field soil, 1,000 g active ingredient per hectare, 21st day after application
Procedure, shortened: as §2

[8] = system: barnyardgrass (Echinochloa crus-galli (L.) P. Beauv. var. crus-galli); assay: Test Example 3: herbicidal effect by application to upland field (foliage treatment); conditions: 14th day after application; for herbicidal effect (index), Barnyardgrass: foliage treatment, plants grown two weeks, 1,000 g active ingredient per hectare; for herbicidal effect, Barnyardgrass: foliage treatment, 1,000 g active ingredient per 1 hectare, greenhouse
Procedure, shortened: (§3)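 Read-out is a visual herbicidal-effect grade on a standard scale, taken on the 14th day after a single foliar spray. The spray was wettable powder diluted in water, 1,000 g active ingredient/ha at 1,000 L/ha, applied to greenhouse plants two weeks after sowing.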

[9] = system: green foxtail (Setaria viridis (L.) P. Beauv.); assay: as above; conditions: 14th day after application; for herbicidal effect (index), Green Foxtail: foliage treatment, plants grown two weeks, 1,000 g active ingredient per hectare; for herbicidal effect, Green Foxtail: foliage treatment, 1,000 g active ingredient per 1 hectare, greenhouse
Procedure, shortened: as §3

[10] = system: slender amaranth (Amaranthus viridis L.); assay: as above; conditions: 14th day after application; for herbicidal effect (index), Slender Amaranth: foliage treatment, plants grown two weeks, 1,000 g active ingredient per hectare; for herbicidal effect, Slender Amaranth: foliage treatment, 1,000 g active ingredient per 1 hectare, greenhouse
Procedure, shortened: as §3

[11] = system: velvetleaf (Abutilon theophrasti medicus); assay: as above; conditions: 14th day after application; for herbicidal effect (index), Velvetleaf: foliage treatment, plants grown two weeks, 1,000 g active ingredient per hectare; for herbicidal effect, Velvetleaf: foliage treatment, 1,000 g active ingredient per 1 hectare, greenhouse
Procedure, shortened: as §3

SMILES	herbicidal effect, Scirpus juncoides Roxb. [1]	herbicidal effect, Echinochloa oryzicola Vasing [2]	herbicidal effect, Monochoria vaginalis (Burm. f.) C. Presl [3]	herbicidal effect (index), Barnyardgrass [4]	herbicidal effect (index), Green Foxtail [5]	herbicidal effect (index), Slender Amaranth [6]	herbicidal effect (index), Velvetleaf [7]	herbicidal effect (index), Barnyardgrass [8]	herbicidal effect (index), Green Foxtail [9]	herbicidal effect (index), Slender Amaranth [10]	herbicidal effect (index), Velvetleaf [11]	herbicidal effect, Barnyardgrass [8]	herbicidal effect, Green Foxtail [9]	herbicidal effect, Slender Amaranth [10]	herbicidal effect, Velvetleaf [11]
C[S+]([O-])CCCn1c(C(F)(F)F)ccc(C(=O)C2=C(O)CCCC2=O)c1=O (centres unmarked) [I-70]	5 (90% or more of herbicidal effect and crop phytotoxicity)	5 (90% or more of herbicidal effect and crop phytotoxicity)	5 (90% or more of herbicidal effect and crop phytotoxicity)	5 (90% or more of herbicidal effect and crop phytotoxicity)	5 (90% or more of herbicidal effect and crop phytotoxicity)	5 (90% or more of herbicidal effect and crop phytotoxicity)	5 (90% or more of herbicidal effect and crop phytotoxicity)	5 (90% or more of herbicidal effect and crop phytotoxicity)	5 (90% or more of herbicidal effect and crop phytotoxicity)	5 (90% or more of herbicidal effect and crop phytotoxicity)	5 (90% or more of herbicidal effect and crop phytotoxicity)				
O=C(C1=C(O)C2CCC(C2)C1=O)c1ccc(C(F)(F)F)n(CC2CCCO2)c1=O (centres unmarked) [III-38]	5 (90% or more of herbicidal effect and crop phytotoxicity)	5 (90% or more of herbicidal effect and crop phytotoxicity)	5 (90% or more of herbicidal effect and crop phytotoxicity)	5 (90% or more of herbicidal effect and crop phytotoxicity)	3 (50 to less than 70% of herbicidal effect and crop phytotoxicity)	5 (90% or more of herbicidal effect and crop phytotoxicity)	5 (90% or more of herbicidal effect and crop phytotoxicity)					5 (90% or more of herbicidal effect and crop phytotoxicity)	4 (70 to less than 90% of herbicidal effect and crop phytotoxicity)	5 (90% or more of herbicidal effect and crop phytotoxicity)	5 (90% or more of herbicidal effect and crop phytotoxicity)
O=C1CCCC(O)=C1C(=O)c1ccc(C(F)(F)F)n(-c2ccc(Cl)cc2)c1=O [I-75]	5 (90% or more of herbicidal effect and crop phytotoxicity)	5 (90% or more of herbicidal effect and crop phytotoxicity)	5 (90% or more of herbicidal effect and crop phytotoxicity)	5 (90% or more of herbicidal effect and crop phytotoxicity)	5 (90% or more of herbicidal effect and crop phytotoxicity)	5 (90% or more of herbicidal effect and crop phytotoxicity)	5 (90% or more of herbicidal effect and crop phytotoxicity)	5 (90% or more of herbicidal effect and crop phytotoxicity)	5 (90% or more of herbicidal effect and crop phytotoxicity)	5 (90% or more of herbicidal effect and crop phytotoxicity)	5 (90% or more of herbicidal effect and crop phytotoxicity)				
O=C1CCCC(O)=C1C(=O)c1ccc(C(F)(F)F)n(NCCCF)c1=O [I-168]	5 (90% or more of herbicidal effect and crop phytotoxicity)	5 (90% or more of herbicidal effect and crop phytotoxicity)	5 (90% or more of herbicidal effect and crop phytotoxicity)	5 (90% or more of herbicidal effect and crop phytotoxicity)	5 (90% or more of herbicidal effect and crop phytotoxicity)	5 (90% or more of herbicidal effect and crop phytotoxicity)	5 (90% or more of herbicidal effect and crop phytotoxicity)					5 (90% or more of herbicidal effect and crop phytotoxicity)	5 (90% or more of herbicidal effect and crop phytotoxicity)	5 (90% or more of herbicidal effect and crop phytotoxicity)	5 (90% or more of herbicidal effect and crop phytotoxicity)
Cn1ncc(C(=O)c2ccc(C(F)(F)F)n(-c3ccc(F)c(F)c3)c2=O)c1O [IV-85]	5 (90% or more of herbicidal effect and crop phytotoxicity)	5 (90% or more of herbicidal effect and crop phytotoxicity)	5 (90% or more of herbicidal effect and crop phytotoxicity)	5 (90% or more of herbicidal effect and crop phytotoxicity)	5 (90% or more of herbicidal effect and crop phytotoxicity)	5 (90% or more of herbicidal effect and crop phytotoxicity)	5 (90% or more of herbicidal effect and crop phytotoxicity)					5 (90% or more of herbicidal effect and crop phytotoxicity)	5 (90% or more of herbicidal effect and crop phytotoxicity)	5 (90% or more of herbicidal effect and crop phytotoxicity)	5 (90% or more of herbicidal effect and crop phytotoxicity)
CCCS(=O)(=O)Oc1c(C(=O)c2ccc(C(F)(F)F)n(CCOCCOC)c2=O)cnn1CC [IV-204]	5 (90% or more of herbicidal effect and crop phytotoxicity)	5 (90% or more of herbicidal effect and crop phytotoxicity)	5 (90% or more of herbicidal effect and crop phytotoxicity)	5 (90% or more of herbicidal effect and crop phytotoxicity)	5 (90% or more of herbicidal effect and crop phytotoxicity)	5 (90% or more of herbicidal effect and crop phytotoxicity)	5 (90% or more of herbicidal effect and crop phytotoxicity)					5 (90% or more of herbicidal effect and crop phytotoxicity)	5 (90% or more of herbicidal effect and crop phytotoxicity)	5 (90% or more of herbicidal effect and crop phytotoxicity)	5 (90% or more of herbicidal effect and crop phytotoxicity)
Cn1ncc(C(=O)c2ccc(C(F)(F)F)n(-c3ccc4c(c3)OCCO4)c2=O)c1O [IV-101]	5 (90% or more of herbicidal effect and crop phytotoxicity)	5 (90% or more of herbicidal effect and crop phytotoxicity)	5 (90% or more of herbicidal effect and crop phytotoxicity)	5 (90% or more of herbicidal effect and crop phytotoxicity)	4 (70 to less than 90% of herbicidal effect and crop phytotoxicity)	5 (90% or more of herbicidal effect and crop phytotoxicity)	4 (70 to less than 90% of herbicidal effect and crop phytotoxicity)					5 (90% or more of herbicidal effect and crop phytotoxicity)	3 (50 to less than 70% of herbicidal effect and crop phytotoxicity)	4 (70 to less than 90% of herbicidal effect and crop phytotoxicity)	4 (70 to less than 90% of herbicidal effect and crop phytotoxicity)
